Experiments:
Alexandergrass = test: Test D Alexandergrass; type: in vivo, Brachiaria plantaginea; conditions: Postemergence
dallisgrass = test: Test D dallisgrass; type: in vivo, Paspalum dilatatum; conditions: Postemergence, 0 to 100 scale
guineagrass = test: Test D guineagrass; type: in vivo, Panicum maximum; conditions: Postemergence, 0 to 100 scale
Spanishneedles = test: Test D Spanishneedles; type: in vivo, Bidens bipinnata; conditions: Postemergence, 0 to 100 scale; for Spanishneedles plant response rating: 0 no injury, 100 complete control
Green foxtail [1] = test: Test D green foxtail; type: in vivo; conditions: Postemergence, 0 to 100 scale, 0 no injury, 100 complete control
Green foxtail [2] = test: Test D green foxtail; type: in vivo; conditions: Postemergence, 0 to 100 scale
Green foxtail [3] = test: Test D green foxtail; type: in vivo; conditions: Postemergence, 0 to 100 scale, 0 no injury, 100 complete control; remark: listed apart in the source
downy brome = test: Test E downy brome; type: in vivo, Bromus tectorum; conditions: Postemergence; for Plant response rating, Downy brome: 0 to 100 scale
Protocol: (§1) Compounds evaluated in this test were formulated in a non-phytotoxic solvent mixture which included a surfactant and applied to plants that were in the 1- to 4-leaf stage (postemergence application). A mixture of sandy loam soil and greenhouse potting mix in a 60:40 ratio was used for the postemergence test.
(§2) Plantings of these crops and weed species were adjusted to produce plants of appropriate size for the postemergence test. All plant species were grown using normal greenhouse practices. Crop and weed species include annual bluegrass (Poa annua), blackgrass (Alopecurus myosuroides), black nightshade (Solanum nigra), chickweed (Stellaria media), common poppy (Papaver rhoeas), deadnettle (Lamium amplexicaule), downy brome (Bromus tectorum), field violet (Viola arvensis), galium (Galium aparine), green foxtail (Setaria viridis), Italian ryegrass (Lolium multiflorum), jointed goatgrass (Aegilops cylindrica), kochia (Kochia scoparia), lambsquarters (Chenopodium album), littleseed canarygrass (Phalaris minor), rape (Brassica napus), redroot pigweed (Amaranthus retroflexus), Russian thistle (Salsola kali), scentless chamomile (Matricaria inodora), spring barley (Hordeum vulgare), sugar beet (Beta vulgaris), sunflower (Helianthus annuus), ivyleaf speedwell (Veronica hederaefolia), spring wheat (Triticum aestivum), winter wheat (Triticum aestivum), wild buckwheat (Polygonum convolvulus), wild mustard (Sinapis arvensis), wild oat (Avena fatua), windgrass (Apera spica-venti) and winter barley (Hordeum vulgare).
(§3) Treated plants and untreated controls were maintained in a greenhouse for approximately 21 to 28 days, after which all treated plants were compared to untreated controls and visually evaluated. […] A dash response (-) means no test result.

galium = test: Test E galium; type: in vivo, Galium aparine; conditions: Postemergence
Protocol: […] A mixture of sandy loam soil and greenhouse potting mix in a 60:40 ratio was used for the postemergence test.
as §2, §3

scentless chamomile [4] = test: Test E scentless chamomile; type: in vivo, Matricaria inodora; conditions: Postemergence
Summary of the method: (§4)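 For postemergence, plants at the 1- to 4-leaf stage, in a 60:40 mix of sandy loam and potting mix, treated with compound formulated in a surfactant-containing non-phytotoxic solvent. Visual assessment versus untreated controls followed roughly 21–28 days in the greenhouse.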

sugar beet = test: Test E sugar beet; type: in vivo, Beta vulgaris; conditions: Postemergence
Protocol: as §1, §2, §3

ivyleaf speedwell = test: Test E postemergence ivyleaf speedwell; type: in vivo, Veronica hederaefolia
Protocol: as §1, §2, §3

spring wheat = test: Test E spring wheat; type: in vivo, Triticum aestivum; conditions: Postemergence
Summary of the method: as §4

wild mustard = test: Test E wild mustard; type: in vivo, Sinapis arvensis; conditions: Postemergence
Summary of the method: as §4

field violet = test: Test E field violet; type: in vivo, Viola arvensis; conditions: Preemergence
kochia = test: Test E kochia; type: in vivo, Kochia scoparia; conditions: Preemergence
scentless chamomile [5] = test: Test E scentless chamomile; type: in vivo, Matricaria inodora; conditions: Preemergence
sunflower = test: Test E sunflower; type: in vivo, Helianthus annuus; conditions: Preemergence
windgrass = test: Test E windgrass; type: in vivo, Apera spica-venti; conditions: Postemergence
Protocol: as §1
Plantings of these crops and weed species were adjusted to produce plants of appropriate size for the postemergence test. All plant species were grown using normal greenhouse practices. […]
Treated plants and untreated controls were maintained in a greenhouse for approximately 21 to 28 days, after which all treated plants were compared to untreated controls and visually evaluated. […]

[6] = Rate 64 g/ha, 0 to 100 scale, 0 no injury, 100 complete control
[7] = Rate 125 g/ha, 0 to 100 scale, 0 no injury, 100 complete control
[8] = Rate 500 g/ha, 0 to 100 scale (0 no injury, 100 complete control)
[9] = Rate 64 g/ha, 0 no injury, 100 complete control
[10] = Rate 125 g/ha, 0 no injury, 100 complete control
[11] = Rate 250 g/ha, 0 to 100 scale (0 no effect, 100 complete control)
[12] = Rate 500 g/ha, 0 no effect, 100 complete control
[13] = Rate 500 g/ha, 0 to 100 scale, 0 no effect, 100 complete control
[14] = Rate 125 g/ha, 0 to 100 scale (0 no effect, 100 complete control)
[15] = Rate 500 g/ha, 0 to 100 scale where 0 is no effect and 100 is complete control
[16] = Rate 250 g/ha, 0 to 100 scale where 0 is no effect and 100 is complete control

CC(C)N(C(=O)n1oc(=O)n(C2CC2)c1=O)c1ccc(F)cc1F [Compound 299]
Plant response rating, Alexandergrass (Alexandergrass; [6]): 90 | Plant response rating, Alexandergrass (Alexandergrass; [7]): 100 | Plant response rating, Alexandergrass (Alexandergrass; Rate 250 g/ha, 0 to 100 scale): 100 | Plant response rating, Alexandergrass (Alexandergrass; [8]): 100 | Plant response rating, Alexandergrass (Alexandergrass; Rate 500 g/ha, 0 to 100 scale): 100 | Plant response rating, Dallisgrass (dallisgrass; [9]): 100 | Plant response rating, Dallisgrass (dallisgrass; [10]): 100 | Plant response rating, Dallisgrass (dallisgrass; Rate 250 g/ha): 100 | Plant response rating, Dallisgrass (dallisgrass; Rate 500 g/ha): 100 | Guineagrass plant response rating (guineagrass; [9]): 20 | Plant response rating, Guineagrass (guineagrass; [9]): 0 | Plant response rating, Guineagrass (guineagrass; [10]): 80 | Plant response rating, Guineagrass (guineagrass; Rate 250 g/ha): 100 | Plant response rating, Guineagrass (guineagrass; Rate 500 g/ha): 100 | Spanishneedles plant response rating (Spanishneedles; Rate 64 g/ha): 0 | Spanishneedles plant response rating (Spanishneedles; Rate 125 g/ha): 0 | Plant response rating, Spanishneedles (Spanishneedles; Rate 250 g/ha): 20 | Plant response rating, Spanishneedles (Spanishneedles; Rate 500 g/ha): 100 | Plant response rating, Green foxtail (Green foxtail [1]; Rate 64 g/ha): 100 | Plant response rating, Green foxtail (Green foxtail [1]; Rate 125 g/ha): 100 | Plant response rating, Green foxtail (Green foxtail [2]; Rate 250 g/ha): 100 | Plant response rating, Green foxtail (Green foxtail [2]; Rate 500 g/ha): 100 | Green foxtail plant response rating (Green foxtail [3]; Rate 64 g/ha): 100 | Green foxtail plant response rating (Green foxtail [3]; Rate 125 g/ha): 100

CC(C)N(C(=O)n1oc(=O)n(C(C)C)c1=O)c1ccc(F)cc1F [Compound 109]
Plant response rating, Downy brome (downy brome; Rate 125 g/ha): 0 | Plant response rating, Downy brortie (downy brome; [11]): 0 | Plant response rating, Downy brome (downy brome; [12]): 0 | Plant response rating, Galium (galium; Rate 125 g/ha, 0 to 100 scale): 50 | Plant response rating, Galium (galium; [11]): 30 | Plant response rating, Galium (galium; [13]): 50 | Plant response rating, Scentless chamo (scentless chamomile [4]; Rate 125 g/ha, 0 to 100 scale): 0 | Plant response rating, Scentless chamo (scentless chamomile [4]; [11]): 0 | Plant response rating, Scentless chamo (scentless chamomile [4]; [13]): 10 | Plant response rating, Sugar beet (sugar beet; Rate 125 g/ha, 0 to 100 scale): 30 | Plant response rating, Sugar beet (sugar beet; [11]): 35 | Plant response rating, Sugar beet (sugar beet; [13]): 30 | Plant response rating, Veronica hedera (ivyleaf speedwell; Rate 125 g/ha, 0 to 100 scale): 20 | Plant response rating, Veronica hedera (ivyleaf speedwell; [11]): 50 | Plant response rating, Veronica hedera (ivyleaf speedwell; [13]): 70 | Plant response rating, Spring Wheat (spring wheat; Rate 125 g/ha, 0 to 100 scale): 30 | Plant response rating, Spring Wheat (spring wheat; [11]): 20 | Plant response rating, Spring Wheat (spring wheat; [13]): 10 | Plant response rating, Wild mustard (wild mustard; Rate 125 g/ha, 0 to 100 scale): 40 | Plant response rating, Wild mustard (wild mustard; [11]): 50 | Plant response rating, Wild mustard (wild mustard; [13]): 20 | Plant response rating, Field violet (field violet; [14]): 50 | Plant response rating, Field violet (field violet; Rate 250 g/ha, 0 to 100 scale): 15 | Plant response rating, Field violet (field violet; [15]): 20 | Plant response rating, Kochia (kochia; [14]): 0 | Plant response rating, Kochia (kochia; Rate 250 g/ha, 0 to 100 scale): 50 | Plant response rating, Kochia (kochia; [15]): 100 | Plant response rating, Scentless chamo (scentless chamomile [5]; [14]): 0 | Plant response rating, Scentless chamo (scentless chamomile [5]; Rate 250 g/ha, 0 to 100 scale): 30 | Plant response rating, Scentless chamo (scentless chamomile [5]; [15]): 30 | Plant response rating, Sunflower (sunflower; [14]): 0 | Plant response rating, Sunflower (sunflower; Rate 250 g/ha, 0 to 100 scale): 10 | Plant response rating, Sunflower (sunflower; [15]): 5

C=CCn1c(=O)on(C(=O)N(c2ccc(F)cc2)C(C)C)c1=O [Compound 146]
Plant response rating, Downy brome (downy brome; Rate 62 g/ha): 55 | Plant response rating, Downy brome (downy brome; Rate 125 g/ha): 10 | Plant response rating, Downy brome (downy brome; [12]): 5 | Downy brome plant response rating (downy brome; [16]): 0 | Plant response rating, Galium (galium; Rate 62 g/ha, 0 to 100 scale): 50 | Plant response rating, Galium (galium; Rate 125 g/ha, 0 to 100 scale): 0 | Plant response rating, Galium (galium; [13]): 60 | Galium plant response rating (galium; [16]): 15 | Plant response rating, Scentless chamo (scentless chamomile [4]; Rate 62 g/ha, 0 to 100 scale): 20 | Plant response rating, Scentless chamo (scentless chamomile [4]; Rate 125 g/ha, 0 to 100 scale): 10 | Plant response rating, Scentless chamo (scentless chamomile [4]; [13]): 10 | Scentless chamo plant response rating (scentless chamomile [4]; [16]): 10 | Plant response rating, Sugar beet (sugar beet; Rate 62 g/ha, 0 to 100 scale): 0 | Plant response rating, Sugar beet (sugar beet; Rate 125 g/ha, 0 to 100 scale): 20 | Plant response rating, Sugar beet (sugar beet; [13]): 40 | Sugar beet plant response rating (sugar beet; [16]): 30 | Plant response rating, Veronica hedera (ivyleaf speedwell; Rate 125 g/ha, 0 to 100 scale): 60 | Veronica hedera plant response rating (ivyleaf speedwell; [16]): 40 | Plant response rating, Veronica hedera (ivyleaf speedwell; [13]): 70 | Plant response rating, Spring Wheat (spring wheat; Rate 62 g/ha, 0 to 100 scale): 10 | Plant response rating, Spring Wheat (spring wheat; Rate 125 g/ha, 0 to 100 scale): 10 | Plant response rating, Spring Wheat (spring wheat; [13]): 20 | Spring Wheat plant response rating (spring wheat; [16]): 10 | Plant response rating, Wild mustard (wild mustard; Rate 62 g/ha, 0 to 100 scale): 60 | Plant response rating, Wild mustard (wild mustard; Rate 125 g/ha, 0 to 100 scale): 50 | Plant response rating, Wild mustard (wild mustard; [13]): 60 | Wild mustard plant response rating (wild mustard; [16]): 40 | Plant response rating, Windgrass (windgrass; Rate 62 g/ha, 0 to 100 scale): 85 | Windgrass plant response rating (windgrass; [16]): 95 | Plant response rating, Alexandergrass (Alexandergrass; [6]): 10 | Plant response rating, Alexandergrass (Alexandergrass; [7]): 20 | Plant response rating, Alexandergrass (Alexandergrass; Rate 250 g/ha, 0 to 100 scale): 40 | Plant response rating, Alexandergrass (Alexandergrass; [8]): 65 | Plant response rating, Alexandergrass (Alexandergrass; Rate 500 g/ha, 0 to 100 scale): 65 | Plant response rating, Dallisgrass (dallisgrass; [10]): 30 | Plant response rating, Dallisgrass (dallisgrass; Rate 250 g/ha): 60 | Plant response rating, Dallisgrass (dallisgrass; Rate 500 g/ha): 80 | Plant response rating, Guineagrass (guineagrass; [9]): 10 | Plant response rating, Guineagrass (guineagrass; [10]): 10 | Plant response rating, Guineagrass (guineagrass; Rate 250 g/ha): 35 | Plant response rating, Guineagrass (guineagrass; Rate 500 g/ha): 60 | Spanishneedles plant response rating (Spanishneedles; Rate 64 g/ha): 10 | Spanishneedles plant response rating (Spanishneedles; Rate 125 g/ha): 10 | Plant response rating, Spanishneedles (Spanishneedles; Rate 250 g/ha): 10 | Plant response rating, Spanishneedles (Spanishneedles; Rate 500 g/ha): 20 | Plant response rating, Field violet (field violet; [14]): 10 | Field violet plant response rating (0 to 100 scale) (field violet; Rate 250 g/ha): 30 | Plant response rating, Field violet (field violet; [15]): 50 | Plant response rating, Kochia (kochia; [14]): 0 | Kochia plant response rating (0 to 100 scale) (kochia; Rate 250 g/ha): 50 | Plant response rating, Kochia (kochia; [15]): 75 | Plant response rating, Scentless chamo (scentless chamomile [5]; [14]): 15 | Scentless chamo plant response rating (0 to 100 scale) (scentless chamomile [5]; Rate 250 g/ha): 100 | Plant response rating, Scentless chamo (scentless chamomile [5]; [15]): 80 | Plant response rating, Sunflower (sunflower; [14]): 20 | Sunflower plant response rating (0 to 100 scale) (sunflower; Rate 250 g/ha): 30 | Plant response rating, Sunflower (sunflower; [15]): 30
